row,SMILES,melting point [°C]
1,COCCOc1ccc(CCCC2OCCO2)c(Oc2ncc(C(F)(F)F)cc2Cl)c1,92 to 92.5
2,C#CCc1c(C)cc(=O)n(O)c1-c1ccccc1,200
3,NNC(=O)c1ncn2c1C1CCN1C(=O)c1sccc1-2 (stereo unspecified),260 to 263
4,CSC1=NC(=O)C(=Cc2cc(C(C)(C)C)c(O)c(C(C)(C)C)c2)N1,248 to 249
5,O=C(O)C1CCCC2c3ccccc3CC12 (stereo unspecified),138 to 139
6,CS(=O)c1c(C#N)nn(-c2ccc(C(F)(F)F)cc2Cl)c1N (stereo unspecified),146 to 147
7,O=C1CCC(C(=O)O)c2cc(Cl)c(C3CCCCC3)cc21 (stereo unspecified),204 to 205
8,CNC(=O)C(C)Oc1ncn(-c2ccccc2)n1 (stereo unspecified),134 to 135
9,CCCCOCCOc1ccc(-c2ccc(N3CCCC3)c(C=C(CC)C(=O)O)c2)cc1,155 to 156
10,CCN1CCCC(CC)(c2ccc(Nc3ncc4ccc(-c5ccccc5OC)n4n3)cc2)C1 (stereo unspecified),69 to 78
11,Cc1ccnc(Sc2cnc(N)s2)n1,158 to 159
12,O=C1N(c2ccccc2)c2ccccc2C1(Cc1ccccn1)Cc1ccccn1,107 to 111
13,O=C(CCCCNC(=O)c1cn2c3c(cccc13)CCC2)NOCc1ccccc1,154 to 155
14,CCOC(=O)c1c(OCC)cc(C=O)cc1OCC,117 to 119
15,COc1cc(-c2cccc([N+](=O)[O-])c2)ccc1N,167 to 168
16,COc1ccc2cccc(N3CCN(CCCCOc4ccc5c(n4)NC(=O)NCC5)CC3)c2c1,155 to 158
17,O=[N+]([O-])c1ccccc1OCC(O)CO (stereo unspecified),96
18,CC(C)CC(NC(=O)C(Cc1ccccc1)NC(=O)C1CCCCC1C(=O)O)C(=O)O (stereo unspecified),84 to 122
19,CC(C)(C)OC(=O)N1CC(CCl)c2c1cc(NC(=O)OCC1c3ccccc3-c3ccccc31)c1ccccc21 (stereo unspecified),103 to 106
20,Cc1ccc(C=CCC#N)cc1,60 to 61
21,NC(=O)c1cc(N)c(Oc2ccccc2)c(S(N)(=O)=O)c1,291 to 292
22,CC(=O)NCc1ccc(Nc2nccc(-c3sc(-c4cccnc4)nc3C)n2)cc1,199 to 201
23,O=C1c2ccccc2CN1c1ccc2c(c1)OCCO2,170 to 176
24,N#CC1=C(C2CCCCCC2)Nc2n[nH]cc2C1c1ccccc1Cl (stereo unspecified),146

row,SMILES,melting point [°C]
1,CCCCCC#CCC#CCC#CCC#CCO,54 to 56
2,CCN(CC)CCOc1cccc2c1c1ccccc1n2Cc1ccccc1,79 to 80.5
3,CNC(=O)c1ccccc1Nc1nc(Nc2ccc3c(c2)CCN(S(C)(=O)=O)CC3)ncc1Cl,251 to 256
4,COc1cc2c(cc1OC)S(=O)c1ccc(Cl)cc1C(N1CCN(C)CC1)C2 (stereo unspecified),178 to 179
5,O=C(Cn1ncc(-c2ccccc2)c1-c1ccccc1)NCCN1CCCC1,80 to 84
6,O=C(O)c1c(F)cccc1-c1ccccc1,122 to 125
7,CNc1cc(Oc2ccc3c(C(=O)Nc4ccc(F)c(C(F)(F)F)c4)cncc3c2)ncn1,255 to 257
8,CC(=O)c1ccc(Nc2c3ccccc3nc3occc23)cc1,220 to 221
9,COc1ccc(C=CC(=O)N2CCN(c3nc(N)c4cc(OC)c(OC)cc4n3)CC2)cc1OC,140
10,O=C(NCCN1CCCC1)c1ccc(OCc2ccc(-c3ccccc3)cc2)nc1,153 to 157
11,Cc1cc(-c2cc3c(cc2C)OC(C)(C)C=C3)ccn1,212 to 214
12,"Cc1cc(F)ccc1OC1CC(C#CC(C)N(O)C(N)=O)C1 (single isomer, unassigned; (+))",139 to 140
13,CC(C)Oc1nsc(N)c1C#N,146 to 148
14,CC(=O)N1[C@@H](C)[C@@H]2C(=O)N(Cc3ccccc3)C(=O)[C@@H]2[C@@H]1c1ccc(C#N)cc1 (racemic),107 to 109
15,CCOC(=O)c1[nH]nnc1Nc1ccc(Cl)cc1,161
16,CC(C)(O)Cn1c(CO)nc2c(N)nc3ccccc3c21,264 to 271
17,COc1cccc2c(Nc3ccc(O)cc3C)c(C(=O)C(C)C)cnc12,243 to 245
18,O=C1N(Cc2ccccn2)c2ccccc2C12COc1ccc3c(c12)OCCO3 (stereo unspecified),132 to 134
19,COc1ccc(-c2cc3cc(F)c(F)cc3[nH]2)cc1NCc1ccc(O)c([N+](=O)[O-])c1,195 to 196
20,CC(=O)OCc1csc(=S)n1CCC(=O)O,144
21,O=C(Nc1cnc2c(c1)nc1n2CCC1O)c1cc2cc(F)ccc2n1Cc1cccc(F)c1 (stereo unspecified),288 to 290
22,Nc1nc(/C(=N/OC2(C(=O)OCc3ccc([N+](=O)[O-])cc3)CCCCC2)C(=O)O)cs1,184 to 185
23,COc1cc(C(=O)N2Cc3ccc(C(=O)NCc4c(CO)cnc(C)c4O)n3Cc3ccccc32)ccc1-c1ccccc1C,179
24,CN(C)CCCN1c2ccccc2N(C)C(=O)c2cccnc21,98.5 to 100

row,SMILES,melting point [°C]
1,N#CC(C(N)=O)=C1Cc2ccccc2SN1,260 to 267
2,Nc1nc(N)c2ncn(CC/C=C/P(=O)(O)O)c2n1,> 325
3,Cn1ncc(C23CCCN(CC2)C3)n1 (stereo unspecified),65 to 70
4,ON=Cc1ccc2c(c1)ncn2-c1cccc(COCc2ccccn2)c1,154 to 155
5,C=CCc1c(O)nc(N)nc1O,> 250
6,CC(=O)NC1(c2ccc(CN3CCN(c4ccccn4)CC3)cc2)CC1,145 to 147
7,O=c1ccc(-c2c(-c3ccccc3)nn3ccccc23)nn1C1CCCCC1,115 to 117
8,COC(=O)c1cc(CN=C=S)cc(CN=C=S)c1,67 to 69
9,Cc1ccc(F)c(NC(=O)c2ccccc2CN2C(=O)C3(COc4cc5c(cc43)CCO5)c3ccccc32)c1 (stereo unspecified),214 to 216
10,O=C1NC(O)(C(Cl)(Cl)Cl)NC1=O,245
11,COCOCc1ccc(C2Cn3cc(C(=O)NCc4ccc(Cl)cc4)c(=O)c4cc(CN5CCOCC5)cc(c43)O2)cc1 (stereo unspecified),236 to 239
12,CC(C)[Si](O[C@@H](CO)[C@H](CC1CCCCC1)NC(=O)OC(C)(C)C)(C(C)C)C(C)C,61 to 63
13,CCOC(=O)Cn1c(=O)sc2ccc(C3=NNC(=O)NC3C)cc21 (stereo unspecified),200 to 202
14,CC(=O)Nc1ncc(C#Cc2cnn3c(C(F)(F)F)cc(-c4ccc(C(F)(F)F)cc4)nc23)cn1,293
15,CCN(CC)C1CCN(c2ccc(-c3[nH]nc4c3C(=O)c3c(NC(=O)NN5CCOCC5)cccc3-4)cc2)CC1,251
16,CS(=O)(=O)Nc1ccc(C=O)cc1Sc1ccc(F)cc1F,109 to 111
17,COC(=O)CCC(CSc1ccc2ccccc2c1)C(=O)O (stereo unspecified),70 to 71
18,COC(=O)Cc1ccc(CN2CCN(C(c3ccccc3)c3ccccc3)CC2)cc1,124 to 125
19,Clc1cc2ccccc2cn1,< 50
20,CNS(=O)(=O)CC(=O)c1cc(OC)ccc1N,117 to 118
21,CCNc1nc(-c2ccc(NC(=O)NCc3cccnc3)cc2)ccc1C(=O)NCCN(C(C)C)C(C)C,160 to 162
22,NC(N)=Nc1nc(-c2csc(CNC(=O)CO)n2)cs1,239
23,O=C(O)c1cnc2n(c1=O)CCC=C2Nc1ccccc1,197 to 198
